Columns and labels:
[1] = tested on: T-Rex 293 cell line SC3 cells having increased expression of androgen receptor protein due to exposure to doxycycline; assay: Cellular growth inhibition, T-Rex 293 SC3 cells with doxycycline-induced androgen receptor (CellTiter-Glo 2.0, 72 hours); assay type: cell-based
[2] = target: T1, androgen receptor (AR) and bromodomain-containing protein 4 (BRD4) protein (Homo sapiens, UniProt O60885+P10275); assay: Ternary complex formation in VCaP cells (AR capture antibody ELISA); assay type: cell-based; conditions: FIG. 1
T1 construct: endogenous in cells; host or cells: VCaP cells
Method: Exemplary compounds were tested for ability to form a ternary complex containing a test compound, androgen receptor (AR), and bromodomain-containing protein 4 (BRD4) protein.
VCaP cells were cultured in ATCC DMEM medium supplemented with 10% ATCC fetal bovine serum, and 1% pen-strep (culture medium). 5000 cells were seeded in 100 μL of culture medium, per well in a clear 96-well poly-D-lysine coated plate. Plates were equilibrated to room temperature for 30 minutes. After equilibration, plates were incubated at 37° C. with 5% CO2 in a humidified tissue culture incubator. Black, opaque 96-well MaxiSorp plates were coated with 50 μL of a solution of androgen receptor antibody diluted in phosphate buffered saline (PBS). The coated plates were then quick-spun for 30 seconds before being sealed and placed in a fridge at 4° C. overnight. Test compounds were titrated in 100% DMSO the day before the experiment was performed and were left sealed in the dessicator overnight. QuantaRed™ Enhanced Chemifluorescent HRP Substrate Kit was taken out from 4° C. to warm up to room temperature. Plates coated with androgen receptor antibody were washed three times with 200 μL 1× Tris -Buffered Saline plus 0.1% Tween20 (TBST), then blocked with 200 μL 3% bovine serum albumin in TBST for approximately […] on a room temperature plate shaker at 500 rpm for 1 hour. […]

T1 sequence (P10275 whole entry, other chains not shown): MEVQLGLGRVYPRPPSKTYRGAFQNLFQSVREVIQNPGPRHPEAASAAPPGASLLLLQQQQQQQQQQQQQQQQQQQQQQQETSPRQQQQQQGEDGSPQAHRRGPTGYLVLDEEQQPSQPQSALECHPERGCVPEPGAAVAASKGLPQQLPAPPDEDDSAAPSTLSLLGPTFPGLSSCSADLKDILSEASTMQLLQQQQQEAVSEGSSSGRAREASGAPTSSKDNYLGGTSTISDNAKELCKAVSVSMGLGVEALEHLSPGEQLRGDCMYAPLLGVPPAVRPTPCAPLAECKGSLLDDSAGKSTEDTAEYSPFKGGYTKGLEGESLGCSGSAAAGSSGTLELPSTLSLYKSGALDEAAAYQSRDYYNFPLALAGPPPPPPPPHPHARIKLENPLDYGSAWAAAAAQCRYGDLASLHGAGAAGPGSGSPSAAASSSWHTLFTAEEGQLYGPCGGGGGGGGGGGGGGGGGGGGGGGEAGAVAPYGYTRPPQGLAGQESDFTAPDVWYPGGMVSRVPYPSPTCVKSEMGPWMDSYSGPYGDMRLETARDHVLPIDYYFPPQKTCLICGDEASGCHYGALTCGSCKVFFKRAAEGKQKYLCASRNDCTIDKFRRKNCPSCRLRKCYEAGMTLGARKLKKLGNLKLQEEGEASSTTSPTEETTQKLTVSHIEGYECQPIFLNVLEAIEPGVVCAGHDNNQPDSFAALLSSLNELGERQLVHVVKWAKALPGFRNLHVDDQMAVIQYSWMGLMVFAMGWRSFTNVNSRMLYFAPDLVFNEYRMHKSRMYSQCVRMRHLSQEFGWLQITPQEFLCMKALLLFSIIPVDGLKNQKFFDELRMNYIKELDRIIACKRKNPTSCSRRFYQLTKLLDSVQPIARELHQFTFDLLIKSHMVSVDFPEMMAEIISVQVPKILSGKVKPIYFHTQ

Compound: COc1cc(O[C@H]2C(C)(C)[C@H](NC(=O)c3cnc(N4CCC5(CC4)CC(Oc4ccc(C6=N[C@@H](Cc7ncco7)c7nnc(C)n7-c7sc(C)c(C)c76)cc4)C5)nc3)C2(C)C)ccc1C#N [II-5, N-[(1r,3r)-3-(4-cyano-3-methoxy-phenoxy)-2,2,4,4-tetramethyl-cyclobutyl]-2-[2-[4-[(9S)-4,5,13-trimethyl-9-(oxazol-2-ylmethyl)-3-thia-1,8,11,12-tetrazatricyclo[8.3.0.0^2,6]trideca-2 (6),4,7,10,12-pentaen-7-yl]phenoxy]-7-azaspiro[3.5]nonan-7-yl]pyrimidine-5-carboxamide]
- Ratio of GI50's ([1]; GI50 of the top compound in the pair divided by GI50 of the lower compound, T-Rex 293 SC3 cells with doxycycline-induced androgen receptor): 1
- GI50 ([1]; T-Rex 293 SC3 cells with 10 ng/ml doxycycline (increased androgen receptor expression), 72 hours, CellTiter-Glo 2.0): < 500 nM
- ternary complex formation between test compound, androgen receptor, and BRD4 [2]: detected

Reference: patent US12668599B2, “Heterobifunctional compounds and methods of treating disease” (Halda Therapeutics OpCo, Inc., priority 2023, dated 2026)
